# Reference: patent US3954767A, “Piperazine salts of 2,5-dihydroxy benzene sulfonic acid mono- and diesters” (priority 1972, dated 1976)
# Where a name gives a salt, the structure may show the parent alone.
# Key:
# [1] = tested on: rats treated with Triton WR-1339; test: Hypolipemic action on the rat, Triton WR-1339 method; assay type: in vivo; details: for Percentage reduction of lipids: Cholesterol / Percentage reduction of lipids: Total Lipids / Percentage reduction of lipids: Triglycerides: Table VI, with respect to Triton WR-1339
# Method: The above-mentioned Triton WR-1339 method was selected. The total cholesterol, triglycerides and total lipids were determined in the serum. The amount of Triton WR-1339 administered to the animals was 300 mg/kg. The amount of piperazine 2,5-dihydroxy benzene sulfonate mono-tosylate administered was 2 mMoles/Kg orally. The letter P signifies probability.
# The above-mentioned Triton WR-1339 method was selected. The total cholesterol, triglycerides and total lipids were determined in the serum. The results obtained are given in Table V. The amount of Triton WR-1339 administered to the animals was 300 mg/Kg. The amount of the piperazine salt with one mole of the di-0-(p-chloro phenoxy isobutyrate) of 2,5-dihydroxy benzene sulfonic acid administered was 1 mMol/Kg orally. The letter P signifies probability.
# In this Triton WR-1339 method, all the compounds are administered at a dose of 2 mMoles/Kg orally excepted those compounds in which is the residue of p-chlorophenoxy isobutyric acid, which are administered orally at a dose corresponding to 2 mMoles of R per Kg, i.e. the amount used is calculated on the basis of the residue R only.
# [2] = Acute toxicity (LD50), mouse, oral, method of Reed and Muench; assay type: in vivo, mouse (albino); details: mouse, in vivo, po
# Method: (§1) The acute toxicities for the mouse are also very low. The medium lethal dose (LD50) for the mouse was determined according to the modified method of Reed and Muench (Reed L. J. & Muench H., Am. J. Hyg., 27, 493, 1938).
# (§2) 1. ACUTE TOXICITY IN THE MOUSE AND RAT
# (§3) 18 to 25 gr albino mouse.
# (§4) The LD50 was determined according to the method of Reed and Muench. […]
# mouse = test: as above; assay type: in vivo, mouse (albino); details: Table VI; species and route not printed in table (mouse per b12)
# Method: as §1, §2, §3, §4
# white Leghorn chickens = test: Hypolipemic action on the chicken; assay type: in vivo, chicken (white Leghorn)
# Method: as §1
# This study was performed with white Leghorn chickens, according to the above-mentioned method. The total cholesterol and the total lipids are determined in the plasma.
# [3] = Acute toxicity (LD50), rat, oral, method of Reed and Muench; parameters: species or system rat (Sprague-Dawley); details: in vivo
# Method: as §2
# 100 to 150 gr. Sprague-Dawley rats.
# The LD50 was determined according to the method of Reed and Muench.
# [4] = orally, 2 mMoles of R (p-chlorophenoxy isobutyric acid residue) per Kg
# [5] = Table VI, species and route not printed in table (mouse per b12), read-out: LD50 (medium lethal dose)
# [6] = Triton 300 mg/kg + compound 2 mMoles/Kg orally, P<0,0005
structure (smiles),measurement,setting,value
"CC(C)(Oc1ccc(Cl)cc1)C(=O)Oc1ccc(O)cc1S(=O)(=O)O [calcium 2-O-(p-chlorophenoxyisobutyryl) 2,5-dihydroxy benzene sulfonate]",Percentage reduction of lipids: Cholesterol,[1]; [4],30%
same,Percentage reduction of lipids: Total Lipids,[1]; [4],26%
same,Percentage reduction of lipids: Triglycerides,[1]; [4],32%
same,LD50,[2]; [5],3.35 mg/kg
"Cc1ccc(S(=O)(=O)Oc2ccc(O)c(S(=O)(=O)O)c2)cc1 [diethylamine-2,5-dihydroxybenzenesulfonate monotosylate] [diethylamine 2,5-dihydroxy benzene sulfonate mono-tosylate]",Percentage reduction of lipids: Cholesterol,[1]; 2 mMoles/Kg orally,23%
same,Percentage reduction of lipids: Total Lipids,[1]; 2 mMoles/Kg orally,31%
same,Percentage reduction of lipids: Triglycerides,[1]; 2 mMoles/Kg orally,32%
same,LD50 (medium lethal dose),mouse,6.588 mg/kg
"CC(C)(Oc1ccc(Cl)cc1)C(=O)Oc1ccc(OC(=O)C(C)(C)Oc2ccc(Cl)cc2)c(S(=O)(=O)O)c1 [magnesium salt of di-O-(p-chloro phenoxy isobutyrate) of 2,5] [magnesium salt of di-O-(p-chlorophenoxy isobutyrate) of 2,5-dihydroxy benzene sulfonic acid]",Percentage reduction of lipids: Cholesterol,[1]; [4],5%
same,Percentage reduction of lipids: Total Lipids,[1]; [4],25%
same,Percentage reduction of lipids: Triglycerides,[1]; [4],51%
same,LD50 (medium lethal dose),mouse,4.780 mg/kg
"Cc1ccc(S(=O)(=O)Oc2ccc(O)c(S(=O)(=O)O)c2)cc1 [morpholine 2,5-dihydroxybenzenesulfonate monotosylate] [morpholine 2.5-dihydroxybenzenesulphonate monotosylate]",Percentage reduction of lipids: Cholesterol,[1]; 2 mMoles/Kg orally,12%
same,Percentage reduction of lipids: Total Lipids,[1]; 2 mMoles/Kg orally,31%
same,Percentage reduction of lipids: Triglycerides,[1]; 2 mMoles/Kg orally,23%
same,LD50 (medium lethal dose),mouse,5.301 mg/kg
"Cc1ccc(S(=O)(=O)Oc2ccc(O)c(S(=O)(=O)O)c2)cc1 [piperazine 2,5-dihydroxybenzenesulfonate monotosylate] [piperazine 2.5-dihydroxybenzenesulphonate monotosylate]","total lipids, b/a . 100 (Y)","white Leghorn chickens; final relative to initial value, check sample X = 1075",726
same,"total cholesterol, b/a . 100 (Y)","white Leghorn chickens; final relative to initial value, check sample X = 1514",1017
same,"total cholesterol, final value (b)",white Leghorn chickens; final value,"947,2 mg % ml of plasma"
same,"total lipids, final value (b)",white Leghorn chickens; final value,"2360,8 mg % ml of plasma"
same,"total cholesterol, initial value (a)",white Leghorn chickens; initial value,"93,1 mg % ml of plasma"
same,"total lipids, initial value (a)",white Leghorn chickens; initial value,"325,2 mg % ml of plasma"
same,Percentage reduction of lipids: Cholesterol,[1]; 2 mMoles/Kg orally,18%
same,Percentage reduction of lipids: Total Lipids,[1]; 2 mMoles/Kg orally,42%
same,Percentage reduction of lipids: Triglycerides,[1]; 2 mMoles/Kg orally,43%
same,total cholesterol,"[1]; Triton 300 mg/kg + compound 2 mMoles/Kg orally, 0,0005<P<0,0025","232,3 mg % ml of plasma"
same,total lipids,[1]; [6],"1211,4 mg % ml of plasma"
same,triglycerides,[1]; [6],"639,8 mg % ml of plasma"
Cc1ccc(S(=O)(=O)Oc2ccc(O)c(S(=O)(=O)O)c2)cc1 [piperazine 2.5-dihydroxybenzenesulphonate monotosylate],LD50,[3]; rat female,11900 mg/kg
same,LD50,[3]; rat male,> 11900 mg/kg
same,LD50,"[2]; mouse female, read-out: LD50",> 10800 mg/kg
same,LD50,"[2]; mouse male, read-out: LD50",> 10800 mg/kg
"CC(C)(Oc1ccc(Cl)cc1)C(=O)Oc1ccc(OC(=O)C(C)(C)Oc2ccc(Cl)cc2)c(S(=O)(=O)O)c1 [piperazine mono-salt of di-O-(p-chlorophenoxy isobutyrate) of 2,5-dihydroxy benzene sulfonic acid]",LD50,[3]; rat female,11700 mg/kg
same,LD50,[3]; rat male,11000 mg/kg
same,LD50,[2]; [5],11000 mg/kg
same,LD50,"[2]; mouse female, read-out: LD50",8700 mg/kg
same,LD50,"[2]; mouse male, read-out: LD50",11000 mg/kg
"Cc1ccc(S(=O)(=O)Oc2ccc(OS(=O)(=O)c3ccc(C)cc3)c(S(=O)(=O)O)c2)cc1 [pyridine 2,5-dihydroxy benzene sulfonate ditosylate]",Percentage reduction of lipids: Cholesterol,[1]; 2 mMoles/Kg orally,17%
same,Percentage reduction of lipids: Total Lipids,[1]; 2 mMoles/Kg orally,31%
same,Percentage reduction of lipids: Triglycerides,[1]; 2 mMoles/Kg orally,44%
same,LD50,[2]; [5],700 mg/kg
"Cc1ccc(S(=O)(=O)Oc2ccc(O)c(S(=O)(=O)O)c2)cc1 [pyridine 2,5-dihydroxybenzenesulfonate monotosylate] [pyridine 2,5-dihydroxy benzene sulfonate mono-tosy-late]",Percentage reduction of lipids: Cholesterol,[1]; 2 mMoles/Kg orally,18%
same,Percentage reduction of lipids: Total Lipids,[1]; 2 mMoles/Kg orally,27%
same,Percentage reduction of lipids: Triglycerides,[1]; 2 mMoles/Kg orally,36%
same,LD50 (medium lethal dose),mouse,680 mg/kg
